Data published in PubChem BioAssay AID2060493 (Molecular Pharmacology Branch, DTP, NCI, 2025).

Test system: 616215-338-R-J1-PDC tumor spheroids, viability
Assay: Anticancer human tumor 616215-338-R-J1-PDC patient-derived colon adenocarcinoma cell line growth inhibition [GQUAD]
Conditions: spheroids with HUVEC and MSC; for IC50: curve of first compound; for viability, T/C: stronger effect = lower value; active = viability on the fitted dose curve at most 10% of control; inactive = the rest
In short: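 Tumor cells were grown as complex spheroids with HUVEC endothelial cells and mesenchymal stem cells as stroma. G-quadruplex stabilizers were combined with targeted agents over half-log dilutions from near the clinical Cmax, or from 10 microM.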

[1] = second compound 0.0316 µM, first compound 0.0316 µM
[2] = second compound 0.0316 µM, first compound 0.1 µM
[3] = second compound 0.0316 µM, first compound 0.316 µM
[4] = second compound 0.0316 µM, first compound 1 µM
[5] = second compound 0.0316 µM, first compound 3.16 µM
[6] = second compound 0.0316 µM, first compound 10 µM
[7] = second compound 0.1 µM, first compound 0.0316 µM
[8] = second compound 0.1 µM, first compound 0.1 µM
[9] = second compound 0.1 µM, first compound 0.316 µM
[10] = second compound 0.1 µM, first compound 1 µM
[11] = second compound 0.1 µM, first compound 3.16 µM
[12] = second compound 0.1 µM, first compound 10 µM
[13] = second compound 0.316 µM, first compound 0.0316 µM
[14] = second compound 0.316 µM, first compound 0.1 µM
[15] = second compound 0.316 µM, first compound 0.316 µM
[16] = second compound 0.316 µM, first compound 1 µM
[17] = second compound 0.316 µM, first compound 3.16 µM
[18] = second compound 0.316 µM, first compound 10 µM
[19] = second compound 1 µM, first compound 0.0316 µM
[20] = second compound 1 µM, first compound 0.1 µM
[21] = second compound 1 µM, first compound 0.316 µM
[22] = second compound 1 µM, first compound 1 µM
[23] = second compound 1 µM, first compound 3.16 µM
[24] = second compound 1 µM, first compound 10 µM
[25] = second compound 3.16 µM, first compound 0.0316 µM
[26] = second compound 3.16 µM, first compound 0.1 µM
[27] = second compound 3.16 µM, first compound 0.316 µM
[28] = second compound 3.16 µM, first compound 1 µM
[29] = second compound 3.16 µM, first compound 3.16 µM
[30] = second compound 3.16 µM, first compound 10 µM
[31] = second compound 10 µM, first compound 0.0316 µM
[32] = second compound 10 µM, first compound 0.1 µM
[33] = second compound 10 µM, first compound 0.316 µM
[34] = second compound 10 µM, first compound 1 µM
[35] = second compound 10 µM, first compound 3.16 µM
[36] = second compound 10 µM, first compound 10 µM
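Note: spheroids exposed to agents for 7 days before readout.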
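Throughout, for viability, T/C: percent viability relative to DMSO vehicle control wells taken as 100%.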

C=CC(=O)N1CCN(c2nc(=O)n(-c3c(C)ccnc3C(C)C)c3nc(-c4c(O)cccc4F)c(F)cc23)C(C)C1 (stereo unspecified) + Cc1cnc(CNC(=O)c2c(=O)c3ccc(N4CCCN(C)CC4)nc3n3c2sc2ccccc23)cn1
inactive: viability, T/C [1] 106% | viability, T/C [2] 109% | viability, T/C [3] 99.1% | viability, T/C [4] 95.9% | viability, T/C [5] 89.2% | viability, T/C [6] 63.7% | viability, T/C [7] 79.8% | viability, T/C [8] 73.9% | viability, T/C [9] 43.4% | viability, T/C [10] 64% | viability, T/C [11] 94.5% | viability, T/C [12] 48.5% | viability, T/C [13] 43.1% | viability, T/C [14] 69.1% | viability, T/C [15] 62.8% | viability, T/C [16] 49.5% | viability, T/C [17] 43.8% | viability, T/C [18] 47.6% | viability, T/C [19] 30.9% | viability, T/C [20] 41% | viability, T/C [21] 38.5% | viability, T/C [22] 34.4% | viability, T/C [23] 38% | viability, T/C [24] 41.8% | viability, T/C [25] 30.6% | viability, T/C [26] 36.6% | viability, T/C [27] 32.9% | viability, T/C [28] 26.6% | viability, T/C [29] 37% | viability, T/C [30] 42.5% | viability, T/C [31] 30.9% | viability, T/C [32] 28.6% | viability, T/C [33] 26% | viability, T/C [34] 35.2% | viability, T/C [35] 34.4% | viability, T/C [36] 24.2%
> 10000 nM: IC50 (second compound 0.0316 µM) | IC50 (second compound 0.1 µM)
938 nM: IC50 (second compound 0.316 µM)
< 31.6 nM: IC50 (second compound 1 µM) | IC50 (second compound 3.16 µM) | IC50 (second compound 10 µM)

CCc1c2c(nc3ccc(O)cc13)-c1cc3c(c(=O)n1C2)COC(=O)[C@]3(O)CC + Cc1cnc(CNC(=O)c2c(=O)c3ccc(N4CCCN(C)CC4)nc3n3c2sc2ccccc23)cn1
active: viability, T/C [15] 6.95% | viability, T/C (second compound 1 µM, first compound 0.0999 µM) 13.7% | viability, T/C [21] 0.14% | viability, T/C [27] 0.15% | viability, T/C (second compound 10 µM, first compound 0.0999 µM) 0.31% | viability, T/C [33] 0.21%
< 0.999 nM: IC50 (second compound 0.316 µM) | IC50 (second compound 1 µM) | IC50 (second compound 3.16 µM) | IC50 (second compound 10 µM)
5.05 nM: IC50 (second compound 0.1 µM)
9.82 nM: IC50 (second compound 0.0316 µM)
inactive: viability, T/C (second compound 0.0316 µM, first compound 0.000999 µM) 105% | viability, T/C (second compound 0.0316 µM, first compound 0.00316 µM) 79.5% | viability, T/C (second compound 0.0316 µM, first compound 0.00999 µM) 47.5% | viability, T/C [1] 30.2% | viability, T/C (second compound 0.0316 µM, first compound 0.0999 µM) 22.1% | viability, T/C [3] 12.9% | viability, T/C (second compound 0.1 µM, first compound 0.000999 µM) 62.2% | viability, T/C (second compound 0.1 µM, first compound 0.00316 µM) 58.3% | viability, T/C (second compound 0.1 µM, first compound 0.00999 µM) 39.8% | viability, T/C [7] 25.6% | viability, T/C (second compound 0.1 µM, first compound 0.0999 µM) 18.2% | viability, T/C [9] 9.44% | viability, T/C (second compound 0.316 µM, first compound 0.000999 µM) 49.3% | viability, T/C (second compound 0.316 µM, first compound 0.00316 µM) 37% | viability, T/C (second compound 0.316 µM, first compound 0.00999 µM) 24.6% | viability, T/C [13] 31.4% | viability, T/C (second compound 0.316 µM, first compound 0.0999 µM) 13.5% | viability, T/C (second compound 1 µM, first compound 0.000999 µM) 38.1% | viability, T/C (second compound 1 µM, first compound 0.00316 µM) 19.4% | viability, T/C (second compound 1 µM, first compound 0.00999 µM) 24.9% | viability, T/C [19] 18.7% | viability, T/C (second compound 3.16 µM, first compound 0.000999 µM) 20% | viability, T/C (second compound 3.16 µM, first compound 0.00316 µM) 25.2% | viability, T/C (second compound 3.16 µM, first compound 0.00999 µM) 21.1% | viability, T/C [25] 14.4% | viability, T/C (second compound 3.16 µM, first compound 0.0999 µM) 17.8% | viability, T/C (second compound 10 µM, first compound 0.000999 µM) 23.8% | viability, T/C (second compound 10 µM, first compound 0.00316 µM) 22% | viability, T/C (second compound 10 µM, first compound 0.00999 µM) 23.6% | viability, T/C [31] 5.75%

COc1ncnc(C2CC2)c1-c1ncc2cnn(Cc3ccc(-c4nc(C(F)(F)F)cn4C(C)C)cc3)c2n1 + Cc1[nH]c2ccc(F)cc2c1-c1nc2c3cccnc3c3ncccc3c2[nH]1
> 10000 nM: IC50 (second compound 0.0316 µM) | IC50 (second compound 0.1 µM) | IC50 (second compound 0.316 µM) | IC50 (second compound 1 µM) | IC50 (second compound 3.16 µM) | IC50 (second compound 10 µM)
inactive: viability, T/C [1] 109% | viability, T/C [2] 98.5% | viability, T/C [3] 106% | viability, T/C [4] 91.9% | viability, T/C [5] 106% | viability, T/C [6] 101% | viability, T/C [7] 108% | viability, T/C [8] 93.7% | viability, T/C [9] 96.1% | viability, T/C [10] 98.2% | viability, T/C [11] 100% | viability, T/C [12] 105% | viability, T/C [13] 106% | viability, T/C [14] 96.3% | viability, T/C [15] 96.5% | viability, T/C [16] 99.8% | viability, T/C [17] 103% | viability, T/C [18] 107% | viability, T/C [19] 100% | viability, T/C [20] 97.9% | viability, T/C [21] 96.5% | viability, T/C [22] 101% | viability, T/C [23] 108% | viability, T/C [24] 99.8% | viability, T/C [25] 101% | viability, T/C [26] 104% | viability, T/C [27] 94.7% | viability, T/C [28] 105% | viability, T/C [29] 109% | viability, T/C [30] 104% | viability, T/C [31] 97% | viability, T/C [32] 90.1% | viability, T/C [33] 98.4% | viability, T/C [34] 98.4% | viability, T/C [35] 98.7% | viability, T/C [36] 96.3%
